These results are taken from patent publication US10806726B2, “Methods of using indazole-3-carb oxamides and their use as Wnt/B-catenin signaling pathway inhibitors” (Samumed, LLC, priority 2016, dated 2020).

Assay [1] relates to primary human mesenchymal stem cells (hMSCs). The experiment in a line: Tenocyte differentiation screening in hMSCs (SCXA-positive cells, 4 days). The settings on record: 96 h, fold change over DMSO. In kind it is cell-based. The source says: Representative compounds were screened using primary human mesenchymal stem cells (hMSCs) to determine their ability to induce tenocyte differentiation (process by which tendon is developed).
Primary human mesenchymal stem cells (hMSCs) were purchased from Lonza (Walkersville, Md.) and expanded in Mesenchymal Stem Cell Growth Media (Lonza). Cells between passage 3 and 6 were used for the experiments.
Cells were fixed using 4% formaldehyde (Electron Microscopy Sciences), and stained with anti-Sclerasis (anti-SCXA) antibodies (Abgent, San Diego, Calif.) [Webb S., et. al., Retinoic acid receptor signaling preserves tendon stem cell characteristics and prevents spontaneous differentiation in vitro, Stem Cell Research & Therapy 2016, 7:45] overnight at 4° C. […] Number of cells positive for SCXA in each well was quantified using the Celllnsight CX5. Data was normalized to the average of 12 DMSO treated wells on the same plate using Dotmatics Studies module. The normalized averages (fold change over DMSO) of 3 replicate wells for each compound concentration were calculated. Due to solubility limitations of some of the compounds, values for higher doses were manually corrected and curve fitting and EC50 determinations were performed using Dotmatics Studies.
EC50 for each compound is reported.

Assay [2] deals with Wnt-responsive promoter driving firefly luciferase in SW480 cells. The experiment in a line: Wnt reporter (SP5 promoter-luciferase) screening assay in SW480 cells. The following applies: Homo sapiens, 24-40 h, top concentration ten micromolar. In kind it is cell-based. The source says:
Another screening assay for Wnt activity is described as follows. Reporter cell lines can be generated by stably transducing cells of cancer cell lines (e.g., colon cancer) with a lentiviral construct that include a Wnt-responsive promoter driving expression of the firefly luciferase gene.
Lentiviral constructs can be made in which the SP5 promoter, a promoter having eight TCF/LEF binding sites derived from the SP5 promoter, is linked upstream of the firefly luciferase gene. The lentiviral constructs can also include a hygromycin resistance gene as a selectable marker. The SP5 promoter construct can be used to transduce SW480 cells, a colon cancer cell line having a mutated APC gene that generates a truncated APC protein, leading to de-regulated accumulation of β-catenin.
Cultured SW480 cells bearing a reporter construct can be distributed at approximately 10,000 cells per well into 96 well or 384 well plates. Compounds from a small molecule compound library can then be added to the wells in half-log dilutions using a ten micromolar top concentration. A series of control wells for each cell type receive only buffer and compound solvent. Twenty-four to forty hours after the addition of compound, reporter activity for luciferase can be assayed, for example, by addition of the BrightGlo luminescence reagent (Promega) and the Victor3 plate reader (Perkin Elmer). Readings can be normalized to DMSO only treated cells, and normalized activities can then be used in the EC50 calculations.

Structures are written as SMILES.

Regarding `O=C(Nc1cnccc1C(F)(F)F)c1n[nH]c2ccc(-c3cncc(CN4CCCC4)c3)cc12` [compound 57, 5-(5-(Pyrrolidin-1-ylmethyl)pyridin-3-yl)-N-(4-(trifluoromethyl)pyridin-3-yl)-1H-indazole-3-carboxamide], the EC50 – broadly, the concentration giving half of the maximal effect – is above 100 µM in assay [1] and at least 10000 nM in assay [2].

Take `O=C(Nc1cncc(-c2cccc(F)c2)c1)c1n[nH]c2ccc(-c3cccnc3)cc12` [compound 9, N-(5-(3-Fluorophenyl)pyridin-3-yl)-5-(pyridin-3-yl)-1H-indazole-3-carboxamide]: the figures for the concentration for a half-maximal effect (EC50) in assay [1] and in assay [2] were above 100 µM and at least 10000 nM, respectively.

On to `O=C(Nc1ccc(N2CCCC2)nc1)c1n[nH]c2ccc(-c3cccnc3)cc12` [compound 53, 5-(Pyridin-3-yl)-N-(6-(pyrrolidin-1-yl)pyridin-3-yl)-1H-indazole-3-carboxamide], for which the EC50 was above 100 µM in assay [1] and 63 nM in assay [2].

With `O=C(Nc1cncc(F)c1)c1n[nH]c2ccc(-c3cccnc3)cc12` [compound 23, N-(5-Fluoropyridin-3-yl)-5-(pyridin-3-yl)-1H-indazole-3-carboxamide], the results for the EC50 in assay [1] and in assay [2] were above 100 µM and 120 nM, respectively.

As to `CN1CCN(c2ccc(NC(=O)c3n[nH]c4ccc(-c5cncc(CN6CCCCC6)c5)cc34)cn2)CC1` [compound 70, N-(6-(4-Methylpiperazin-1-yl)pyridin-3-yl)-5-(5-(piperidin-1-ylmethyl)pyridin-3-yl)-1H-indazole-3-carboxamide], the EC50 in assay [1] was found to be 10.8 µM; in assay [2], 41 nM.

Consider `N#Cc1ccc(NC(=O)c2n[nH]c3ccc(-c4cncc(CN5CCCCC5)c4)cc23)cn1` [compound 62, N-(6-Cyanopyridin-3-yl)-5-(5-(piperidin-1-ylmethyl)pyridin-3-yl)-1H-indazole-3-carboxamide], for which the EC50 in assay [1] is above 100 µM; in assay [2] it was 16 nM.

Regarding `CN(C)Cc1cncc(-c2ccc3[nH]nc(C(=O)Nc4ccc(Oc5ccccc5F)nc4)c3c2)c1` [compound 36, 5-(5-((Dimethylamino)methyl)pyridin-3-yl)-N-(6-(2-fluorophenoxy)pyridin-3-yl)-1H-indazole-3-carboxamide], the EC50 was above 100 µM in assay [1] and 275 nM in assay [2].

In the case of `O=C(Nc1ccc(N2CCC2)nc1)c1n[nH]c2ccc(-c3cncc(CN4CCCCC4)c3)cc12` [compound 174, N-(6-(Azetidin-1-yl)pyridin-3-yl)-5-(5-(piperidin-1-ylmethyl)pyridin-3-yl)-1H-indazole-3-carboxamide], the half-maximal effective concentration (EC50) in assay [1] worked out at 5.54 µM; in assay [2], 48 nM.

As to `O=C(NC1CCCC1)c1ccc(NC(=O)c2n[nH]c3ccc(-c4cccnc4)cc23)cn1` [compound 181, N-(6-(Cyclopentylcarbamoyl)pyridin-3-yl)-5-(pyridin-3-yl)-1H-indazole-3-carboxamide], the EC50 in assay [1] is above 100 µM; in assay [2], 38 nM.

On to `O=C(Nc1cccnc1)c1n[nH]c2ccc(-c3cncc(F)c3)cc12` [compound 13, 5-(5-fluoropyridin-3-yl)-N-(pyridin-3-yl)-1H-indazole-3-carboxamide], for which the EC50 was above 100 µM in assay [1] and 1250 nM in assay [2].

On to `O=C(Nc1ccc(O)nc1)c1n[nH]c2ccc(-c3cncc(CN4CCCCC4)c3)cc12` [compound 178, N-(6-Hydroxypyridin-3-yl)-5-(5-(piperidin-1-ylmethyl)pyridin-3-yl)-1H-indazole-3-carboxamide], for which the EC50 in assay [1] is above 100 µM; in assay [2], 297 nM.

Regarding `O=C(Nc1ccc(C(F)(F)F)nc1)c1n[nH]c2ccc(-c3cncc(CN4CCOCC4)c3)cc12` [compound 68, 5-(5-(Morpholinomethyl)pyridin-3-yl)-N-(6-(trifluoromethyl)pyridin-3-yl)-1H-indazole-3-carboxamide], the results for the EC50 in assay [1] and in assay [2] were 4.61 µM and 48 nM, respectively.

For the molecule `O=C(Nc1cccnc1)c1n[nH]c2ccc(-c3cncc(CN4CCCCC4)c3)cc12` [compound 46, 5-(5-(Piperidin-1-ylmethyl)pyridin-3-yl)-N-(pyridin-3-yl)-1H-indazole-3-carboxamide], the values for the EC50 in assay [1] and in assay [2] were 5.06 µM and 15 nM, respectively.

On to `O=C(Nc1ccc(N2CCCC2)nc1)c1n[nH]c2ccc(-c3cncc(CN4CCC(O)CC4)c3)cc12` [compound 170, 5-(5-((4-Hydroxypiperidin-1-yl)methyl)pyridin-3-yl)-N-(6-(pyrrolidin-1-yl)pyridin-3-yl)-1H-indazole-3-carboxamide], for which the 50% effective concentration (EC50) in assay [1] was above 100 µM; in assay [2], 43 nM.

With `CN1CCN(Cc2ccc(NC(=O)c3n[nH]c4ccc(-c5cccnc5)cc34)cn2)CC1` [compound 15, N-(6-((4-Methylpiperazin-1-yl)methyl)pyridin-3-yl)-5-(pyridin-3-yl)-1H-indazole-3-carboxamide], the concentration giving a half-maximal response (EC50) in assay [1] is 4.8 µM; in assay [2], 37 nM.

Consider `CN(C)Cc1cncc(NC(=O)c2n[nH]c3ccc(-c4cccnc4)cc23)c1` [compound 7, N-(5-((Dimethylamino)methyl)pyridin-3-yl)-5-(pyridin-3-yl)-1H-indazole-3-carboxamide], for which the EC50 in assay [1] was 6.94 µM; in assay [2], 110 nM.

For the molecule `O=C(Nc1ccnnc1)c1n[nH]c2ccc(-c3cncc(CN4CCCCC4)c3)cc12` [compound 75, 5-(5-(Piperidin-1-ylmethyl)pyridin-3-yl)-N-(pyridazin-4-yl)-1H-indazole-3-carboxamide], the EC50 in assay [1] worked out at 12.4 µM; in assay [2], 40 nM.

Regarding `O=C(Nc1cccnc1)c1n[nH]c2ccc(-c3ccc(N4CCCC4)nc3)cc12` [compound 51, N-(Pyridin-3-yl)-5-(6-(pyrrolidin-1-yl)pyridin-3-yl)-1H-indazole-3-carboxamide], the EC50 was above 100 µM in assay [1] and 26 nM in assay [2].

Take `O=C(Nc1cccnc1)c1n[nH]c2ccc(-c3cncc(C(F)(F)F)c3)cc12` [compound 16, N-(pyridin-3-yl)-5-(5-(trifluoromethyl)pyridin-yl)-1H-indazole-3-carboxamide]: the EC50 in assay [1] is 35.8 µM; in assay [2] it was at least 10000 nM.

In the case of `Cn1nc(NC(=O)c2n[nH]c3ccc(-c4cccnc4)cc23)cc1C(F)(F)F` [compound 37, N-(1-Methyl-5-(trifluoromethyl)-1H-pyrazol-3-yl)-5-(pyridin-3-yl)-1H-indazole-3-carboxamide], the EC50 in assay [1] is above 100 µM; in assay [2], 1120 nM.

As to `O=C(Nc1ccc(N2CCCCC2)nc1)c1n[nH]c2ccc(-c3cncc(CN4CCCCC4)c3)cc12` [compound 126, N-(6-(Piperidin-1-yl)pyridin-3-yl)-5-(5-(piperidin-1-ylmethyl)pyridin-3-yl)-1H-indazole-3-carboxamide], the results for the 50% effective concentration (EC50) in assay [1] and in assay [2] were 5.54 µM and 22 nM, respectively.

As for `O=C(Nc1cccnc1)c1n[nH]c2ccc(-c3cc(F)cc(CN4CCCCC4)c3)cc12` [compound 67, 5-(3-Fluoro-5-(piperidin-1-ylmethyl)phenyl)-N-(pyridin-3-yl)-1H-indazole-3-carboxamide], the figures for the concentration giving a half-maximal response (EC50) in assay [1] and in assay [2] were above 100 µM and at least 10000 nM, respectively.

Consider `O=C(Nc1cncc(F)c1)c1n[nH]c2ccc(-c3cncc(CN4CCCCC4)c3)cc12` [compound 168, N-(5-Fluoropyridin-3-yl)-5-(5-(piperidin-1-ylmethyl)pyridin-3-yl)-1H-indazole-3-carboxamide], for which the figures for the EC50 in assay [1] and in assay [2] were above 100 µM and 66 nM, respectively.

Turning to `O=C(Nc1cccnc1)c1n[nH]c2ccc(-c3cncc(CN4CCC(F)(F)C4)c3)cc12` [compound 188, 5-(5-((3,3-Difluoropyrrolidin-1-yl)methyl)pyridin-3-yl)-N-(pyridin-3-yl)-1H-indazole-3-carboxamide], the values for the EC50 in assay [1] and in assay [2] were 1.21 µM and 9 nM, respectively.

Turning to `O=C(Nc1cccnc1)c1n[nH]c2ccc(-c3cncc(CN4CCCC4)c3)cc12` [compound 43, N-(Pyridin-3-yl)-5-(5-(pyrrolidin-1-ylmethyl)pyridin-3-yl)-1H-indazole-3-carboxamide], the EC50 came out at 5.02 µM in assay [1] and 63 nM in assay [2].

`O=C(NCc1cccnc1)c1n[nH]c2ccc(-c3cncc(CN4CCCCC4)c3)cc12` [compound 76, 5-(5-(Piperidin-1-ylmethyl)pyridin-3-yl)-N-(pyridin-3-ylmethyl)-1H-indazole-3-carboxamide]: the EC50 in assay [1] stood at 2.67 µM; in assay [2] it was 850 nM.

With `N#Cc1cncc(-c2ccc3[nH]nc(C(=O)Nc4cccnc4)c3c2)c1` [compound 66, 5-(5-Cyanopyridin-3-yl)-N-(pyridin-3-yl)-1H-indazole-3-carboxamide], the 50% effective concentration (EC50) in assay [1] was above 100 µM; in assay [2] it was at least 10000 nM.
